# Results from US20080051646A1, “Probe for cellular oxygen” (priority 2006, published 2008).
# Where no end group is shown, it is not given here. PtCP = not defined here
# Legend:
# Type in all cases: cell-based
# A549 cells = test: Intracellular oxygen imaging of loaded cells treated with effector compounds
# Protocol: (§1) Loading of the cells with the PtCPK-BSA and PdCPK-BSA based probes (as described in Example 2) was carried out in the same way as described in Example 3 for the PtCP-BSA probes (i.e. 5 h in serum-free medium for the Escort or 24 h in serum-rich medium for Endoporter). A549 and HeLa cells loaded with PtCPK-BSA and PdCPK-BSA probes were then washed and analyzed by fluorescence microscopy. Imaging experiments of cells loaded with the probes were carried out on an Olympus IX51 inverted fluorescence microscope equipped with 75 W Xenon Arc Lamp (Cairn), an Optoscan Monochromator (Cairn) and an Orca-ER CCD camera (Hamamatsu). Live cell imaging was carried out using an Olympus UplanFl 1.3 NA 100× oil-immersion objective. The images were analysed using Kinetic Imaging AQM Advanced software (Version 6). The PtCPK and PdCPK probes were imaged under excitation at wavelengths of 395 nm and 400 nm respectively collecting the phosphorescence emission using a 600 nm cut-off filter.
# (§2) Adherent A549, HeLa and SH-SY5Y cells were grown under normal conditions. Cells were loaded with probes based on PtCPK-BSA and PdCPK-BSA and Escort III (described in Example 2), and treated with various effector compounds with known mechanisms of action on cell metabolism and cellular response to the effector compounds was observed under a fluorescent microscope.
# The effect of Ca-channel agonist ryanodine (20 nM) on SH-SY5Y cells, with up-regulation of cell metabolism by inducing a release of Ca2+ from intracellular stores, is shown in FIG. 4. […] An approximately 40% drop in PtCPK phosphorescence was observed as the base rate of respiration was inhibited resulting in higher levels of intracellular oxygen emanating from O2 influx from the extracellular medium.
# The specificity of the CMC response was confirmed by incubating A549 cells with an equimolar concentration of the ryanodine channel blocker procaine followed by CMC treatment. In this case, phosphorescence intensity increased by less than 10% after the introduction of CMC.
# Jurkat T-cells = test: Phosphorescence lifetime of PtCP-BSA probe in Jurkat cells on a fluorescent lifetime spectrometer; conditions: for change in intracellular probe phosphorescence lifetime after effector: Jurkat cells loaded with PtCP-BSA-Escort III probe, 1 μM, three minute intervals
# Protocol: Jurkat T-cells were grown in RPMI medium supplemented with 10% FBS, 2 mM L-glutamine, 100 U/ml penicillin and 100 μg/ml streptomycin.
# For loading, the PtCP-BSA based probe comprising PtCP-BSA conjugate formulated with Escort III (described in Example 1) was used. Probe solution was pre-warmed by incubating at 37° C for 15 min followed by addition of 100 μl of the probe solution to the cell culture dish containing 800 μl of serum free medium. The cells and probe solution were incubated for 5 hours in a 5% CO2 incubator at 37° C., cells were then washed with 1 ml of serum free medium three times.
# Loading of the cells loaded with the PtCP-based probe(s) was initially assessed by measurement on a fluorescent lifetime spectrometer Cary Eclipse (Varian), both in the intracellular environment (i.e. after loading and washing of the cells) and in the extracellular medium (at the start of loading, no washing). […] The inhibitor blocks oxygen consumption and adjusts intracellular oxygen levels to air-saturated levels.
# Jurkat T-cell lymphoma cells were grown under normal conditions and loaded with the PtCP-BSA-Escort III based probe (as described in Example 1) using the method described in Example 3. Following washing the basal level of intracellular oxygen was assessed by measuring the phosphorescence lifetime of the PtCP probe using a Cary Eclipse spectrofluorometer and analyzing phosphorescence decays using Origin™ software (single-exponential fits). Phosphorescence lifetimes of the intracellular probe in loaded cells were measured at three minute intervals following the addition of 1 μM valinomycin.
# Jurkat T cells = test: Lifetime of cell-surface-bound WGA-PtCP probe on Victor2 time resolved reader; conditions: Jurkat cells loaded with WGA-PtCP probe; 1 μM; basal 25 μs
# Protocol: Wheat germ agglutinin (WGA) at 1 mg/ml concentration in 0.1 M Na carbonate, pH 8.6 was labelled with the PtCP-NCS dye using a 20-molar excess of dye. After two hours of incubation at room temperature, the resulting conjugate was separated from the free dye as described in example 1 above. Jurkat T cells and human B cells were incubated with WGA-PtCP probe at 1 μM concentration for 30 min at 37° C. in RPMI medium, to achieve binding of the probe to glycoproteins on cell surface. After washing of loaded cells with medium, local oxygen concentration (at cell surface and within the cell) was assessed. and responses to effectors of respiration such as 1 μM FCCP were measured. Lifetimes of the cells loaded with WGA-PtCP probe was measured on a time resolved fluorescent reader Victor^2, using excitation at 340 nm excitation and 642 nm emission filters, and pairwise intensity readings at delay times 30 and 70 μs (at gate time 100 μs). Basal lifetime of resting Jurkat cells was recorded as 25 μs, moving to 32 μs upon the addition of FCCP (uncoupler of respiration). Under the same conditions, using the PtCP-BSA conjugate which had no ability to bind to the cells and remained in extracellular medium, intracellular oxygen gradients and responses to effectors were undetectable.
# PC12 cells = test: Mitochondria-targeted probes in loaded cells on the Victor reader
# Protocol: The PtCP-BSA conjugate, synthesized as described in Example 1 was additionally labelled with a synthetic oligopeptide containing the following sequence: […]. The peptide comprises a mitochondria targeting sequence (according to http://psort.ims.u-tokyo.ac.jp), a terminal cysteine group was used for the conjugation. Labelling with the peptide was achieved by means of a heterobifunctional reagent—succinimide ester of maleimidopropionic acid. The PtCP-BSA conjugate was incubated with 10-molar excess of the reagent in 0.1 M phosphate buffer, pH 7.8 for 4 hours at room temperature, then separated on a PD-10 column in the same buffer. The peak of activated PtCP-BSA was collected, mixed with 10-molar excess of the peptide, incubated for further 6 hours. Finally, the PtCP-BSA-peptide conjugate was separated on a PD-10 column.
# Alternatively, the peptide was conjugated directly to PtCP. The monofunctional maleimide derivative of PtCP was used, which reacts spontaneously with —SH groups on the peptide (terminal cysteins) to form stable covalent linkage. […]
# Probes incorporating the PtCP-BSA-peptide and PtCP-peptide conjugates (successful labelling was confirmed by MALDI mass spectrometry) were formulated with Endoporter agent and used for cell loading as described in Examples 3 to 8. PC12 cells loaded with these probes produced high signals on the Victor reader.
# HeLa cells = test: Intracellular oxygen imaging of loaded cells treated with valinomycin; conditions: HeLa cells loaded with PtCPK-BSA or PdCPK-BSA; 1 μM
# Protocol: as §1
# as §2, with “microscope. […]” for “microscope.”
molecule,measurement,setting,value
antimycin A,drop in PtCPK phosphorescence,"A549 cells; A549 cells loaded with PtCPK-BSA/Escort III, 2 μM",approximately 40%
same,probe lifetime after addition of inhibitor,"Jurkat T-cells; Jurkat cells loaded with PtCP-BSA probe, basal 31 μs, lifetime decreases and levels off",~25 μs
same,change in intracellular probe phosphorescence lifetime after effector,Jurkat T-cells,slight drop
"Cc1cc(O)ccc1Cl [CMC, 4-chloro-meta-cresol]",increase of phosphorescence intensity,"A549 cells; A549 cells pre-incubated with equimolar procaine, then 500 μM CMC",less than 10%
same,effect on the phosphorescence,"A549 cells; respiring A549 cells loaded with PtCPK-BSA, 500 μM",pronounced effect
N#CC(C#N)=NNc1ccc(OC(F)(F)F)cc1 [FCCP],lifetime upon addition of uncoupler,Jurkat T cells,32 μs
PtCP-peptide: PtCP-maleimide conjugated directly to peptide VLTPLLLRGLTGSARRLPVPRAKAC (VLTPLLLRGLTGSARRLPVPRAKAC(PtCP); reading uncertain),signals of loaded cells on the Victor reader,PC12 cells; formulated with Endoporter,high signals
same,phosphorescence lifetimes of resting loaded cells compared with PtCP-BSA probe,PC12 cells; resting,higher
ryanodine,"response of loaded cells, lower concentrations","A549 cells; A549 cells loaded with PtCPK, 2 nM and 20 nM",increased phosphorescence
same,"response of loaded cells, higher concentrations","A549 cells; A549 cells loaded with PtCPK, 200 nM and 2 μM",little oxygen uptake
CC(C)[C@@H]1NC(=O)[C@H](C)OC(=O)[C@@H](C(C)C)NC(=O)[C@@H](C(C)C)OC(=O)[C@H](C(C)C)NC(=O)[C@H](C)OC(=O)[C@@H](C(C)C)NC(=O)[C@@H](C(C)C)OC(=O)[C@H](C(C)C)NC(=O)[C@H](C)OC(=O)[C@@H](C(C)C)NC(=O)[C@@H](C(C)C)OC1=O [valinomycin],phosphorescence response to effector,"A549 cells; A549 cells loaded with PtCPK-BSA or PdCPK-BSA, 1 μM",rapid and cell specific
same,phosphorescence response to effector,HeLa cells,rapid and cell specific
same,change in intracellular probe phosphorescence lifetime after effector,Jurkat T-cells,increase in probe lifetime was significantly faster than in a control sample
